The test system of one data set is HDF. The data set is described as follows: DNA microarray gene expression, control HDF against p53 knockdown HDF. Format: cell-based, human. An excerpt:
To elucidate p53 target genes that are responsible for the observed enhancement of iPS cell generation, we compared gene expression between p53 wild-type MEF and p53-null MEF by DNA microarrays, and between control HDF and p53 knockdown HDF. In MEF, 1590 genes increased and 1485 genes decreased >5 fold in p53-null MEF. In HDF, 290 genes increased and 430 genes decreased >5 fold by p53 shRNA. Between mouse and human, eight increased genes are common, including v-myb myeloblastosis viral oncogene homolog (MYB) and a RAS oncogenes family, RAB39B (Table 2).

In data set [1] the test system is p53. The experiment in a line: Luciferase reporter driven by a p53-responsive element in HDF. Format: cell-based, human. To be noted: luciferase activity two days after introduction. From the text: (§1) FIGS. 24A-24C show effects of p53 suppression on p21 and Myc. Genes regulated (4 increased and 7 decreased) by p53 suppression were introduced into HDFs together with the four reprogramming factors (FIG. 24A) or the four reprogramming factors and the p53 shRNA (FIG. 24B). On day 24 (FIG. 24A) or day 28 (FIG. 24B) post-transduction, numbers of iPS cell colonies were counted. **; p<0.01 compared to DsRed control (n=3). Luciferase reporters containing responsive elements of p53 or Myc, or that driven by the polymerase II promoter were introduced into HDFs, together with the mock retroviral vector, the p53 shRNA, the four reprogramming factors, or the three factors devoid of Myc. Two days later, luciferase activities were determined (c). **; p<0.01, *; p<0.05 compared to the mock control (n=3).
(§2) The p21 protein binds to Myc and suppresses its transcriptional activity (Kitaura, H. et al., J Biol. Chem., 275(14), 10477-10483 (2000)). This might contribute to the increased efficiency of iPS cell generation by p53-p21 suppression. We evaluated the Myc activity in HDF by introducing luciferase reporters driven by either a p53-responsive element or a Myc responsive element (FIG. 24C). We confirmed the p53 activity was reduced by the shRNA. […] The effect was stronger than that observed with the introduction of the four factors including c-Myc.
Background: A reporter such as luciferase makes a cellular process visible.

Another data set deals with Myc. The data set is described as follows: Luciferase reporter driven by a Myc responsive element in HDF. It is filed as cell-based, human. Particulars: luciferase activity two days after introduction.
Excerpt: as §1, §2

The next data set relates to HDFs. The experiment in a line: Human iPS cell generation with p53 shRNA co-transduction. Format: cell-based. To be noted: co-introduced with the four reprogramming factors.
Data set [2] concerns p53. The data set is described as follows: p53 protein level by western blot after shRNA transduction. It is filed as cell-based, human. Particulars: western blot six days after retroviral transduction. The method, then:
Retroviral vectors for p53 shRNA or control RNA were transduced into HDFs. Six days after the transduction, p53 protein levels were determined by western blot analyses.
(B) In another experiment, we examined effects of shRNA against human p53 (shRNA2; Stewart S. A. et al. RNA 9(4), 493 (2003)). Retroviral vectors for shRNA expression, pMKO.1-puro (Addgene #8452), pMKO.1-puro p53 shRNA1 (Addgene #10671) and pMKO.1-puro p53 shRNA2 (Addgene #10672; shRNA sequence is shown in SEQ ID NO:28), were obtained from Addgene. Retroviruses for shRNAs, and the four or three reprogramming factors were produced in PLAT-E cells. For iPS cell generation, equal amounts of PLAT-E supematants containing each retrovirus were mixed and transduced to HDF.
Background: A western blot detects proteins with antibodies after separation by electrophoresis.

Excerpt for HDFs: The retroviral vector expressing either p53 shRNA or control RNA was transduced into HDFs together with the four reprogramming factors. To rescue RNAi-mediated knockdown, a retroviral vector for mouse p53 was co-introduced.

Consider “p53 shRNA2: shRNA against human p53, SEQ ID NO:28, retroviral vector pMKO.1-puro p53 shRNA2 (Addgene #10672) (GACTCCAGTGGTAATCTACTGCTCGAGCAGTAGATTACCACTGGAGTC)”, for which, in the data set on HDF, the “number of genes decreased >5 fold” value came out at 430 genes and the “number of genes increased >5 fold” value came out at 290 genes. Further, in the data set on p53 [1], the “p53 activity (luciferase reporter)” value is “reduced”. Further, the “Myc activity (luciferase reporter)” value in the data set on Myc is “significantly enhanced”. In the data set with HDFs, the “numbers of human iPS cell colonies” value is on record as “markedly increased”. In the data set with p53 [2], the p53 protein level entry is “effectively suppressed”.
